Patent publication US20080070794A1, “Chemical sensors” (The Trustees of Princeton University, priority 2005, published 2008)
Positions count from the first letter of the chain named. Entries after “also recorded” stand apart in the source; their conditions may differ. Values belong to the molecule of their own block, whether it stands above or below them.

Assays:
[1] = target: T1, UDP-glucose receptor 2211 (Homo sapiens, UniProt Q15391, A193V/A252V/A98V/F243I/K54E); assay: β-galactosidase reporter assay in yeast, mutant 2211 receptor; format: cell-based
T1 construct: The entire UDPG receptor gene was mutagenized via error-prone mutagenesis; expressed in transfected cells; host or cells: Saccharomyces cerevisiae CY10560 (growth) / CY10981 with Cp1021 FUS1-LacZ (β-galactosidase)
T1 sequence (Q15391 1-338 K54E/A98V/A193V/F243I/A252V): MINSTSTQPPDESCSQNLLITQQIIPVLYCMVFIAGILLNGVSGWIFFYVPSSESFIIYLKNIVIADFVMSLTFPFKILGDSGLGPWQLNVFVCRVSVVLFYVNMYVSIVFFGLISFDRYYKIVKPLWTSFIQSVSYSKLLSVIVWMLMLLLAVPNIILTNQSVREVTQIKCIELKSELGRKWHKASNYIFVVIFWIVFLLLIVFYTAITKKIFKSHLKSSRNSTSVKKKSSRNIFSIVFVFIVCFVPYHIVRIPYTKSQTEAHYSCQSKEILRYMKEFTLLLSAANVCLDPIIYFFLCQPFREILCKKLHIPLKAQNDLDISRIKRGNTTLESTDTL
Experimental: (§1) Strains and plasmids. Mutagenesis and selection were performed in yeast strain […] can1-100 […] […] […] ura3-52). β-Galactosidase assays were performed using yeast strain CY10981 (PFUS1-HIS3 can1-100 […] […] […] ura3-52) carrying plasmid Cp1021 (PFUS1-LacZ 2 μm URA3).

[2] = target: T2, UDPG receptor mutant H-20 (Homo sapiens, UniProt Q15391, A193V/A252V/A98V/F243I/I251T/K54E/R253K); assay: β-galactosidase reporter assay in yeast, mutant H-20 receptor; format: cell-based
T2 construct: The entire UDPG receptor gene was mutagenized via error-prone mutagenesis; expressed in transfected cells; host or cells: Saccharomyces cerevisiae CY10560 (growth) / CY10981 with Cp1021 FUS1-LacZ (β-galactosidase)
T2 sequence (Q15391 1-338 K54E/A98V/A193V/F243I/I251T/A252V/R253K): T1 sequence (Q15391 1-338 K54E/A98V/A193V/F243I/A252V) with I251T, R253K
Experimental: as §1

[3] = target: T3, UDPG receptor mutant K-3 (Homo sapiens, UniProt Q15391, A193V/A252V/A98V/E278G/F243I/I251T/K54E/R253K); assay: β-galactosidase reporter assay in yeast, mutant K-3 receptor; format: cell-based
T3 construct: The entire UDPG receptor gene was mutagenized via error-prone mutagenesis; expressed in transfected cells; host or cells: Saccharomyces cerevisiae CY10560 (growth) / CY10981 with Cp1021 FUS1-LacZ (β-galactosidase)
T3 sequence (Q15391 1-338 K54E/A98V/A193V/F243I/I251T/A252V/R253K/E278G): T1 sequence (Q15391 1-338 K54E/A98V/A193V/F243I/A252V) with I251T, R253K, E278G
Experimental: as §1

[4] = target: T4, wild type UDPG receptor (P2Y14) (Homo sapiens, UniProt Q15391); assay: β-galactosidase reporter assay in yeast, wild type receptor; format: cell-based
T4 construct: The entire UDPG receptor gene was mutagenized via error-prone mutagenesis; expressed in transfected cells; host or cells: Saccharomyces cerevisiae CY10560 (growth) / CY10981 with Cp1021 FUS1-LacZ (β-galactosidase)
T4 sequence (Q15391 1-338): T1 sequence (Q15391 1-338 K54E/A98V/A193V/F243I/A252V) with E54K, V98A, V193A, I243F, V252A

[5] = target: T5, K-3 mutant (Homo sapiens, UniProt Q15391, A193V/A252V/A98V/E278G/F243I/I251T/K54E/R253K); assay: Yeast growth assay, mutant K-3 receptor; format: cell-based; conditions: relative to parent H-20
T5 construct: The entire UDPG receptor gene was mutagenized via error-prone mutagenesis; expressed in transfected cells; host or cells: Saccharomyces cerevisiae CY10560 (growth) / CY10981 with Cp1021 FUS1-LacZ (β-galactosidase)
T5 sequence (Q15391 1-338 K54E/A98V/A193V/F243I/I251T/A252V/R253K/E278G): T1 sequence (Q15391 1-338 K54E/A98V/A193V/F243I/A252V) with I251T, R253K, E278G
From the text: Targeted mutagenesis and selection of functional receptor mutants. To generate targeted mutants, oligonucleotides with randomized sequences, corresponding to the codons to be mutagenized, were utilized to generate overlapping PCR products. The method and many applicable variations thereof are known in the art.
The HTVK mutant, designated H-20, was selected as the template for mutagenesis of three additional motifs, ‘AxxFY’ and ‘NMY’ in TM3, and ‘KExT’ in TM7.

[6] = target: T6, wild type human UDPG receptor (Homo sapiens, UniProt Q15391); assay: Yeast growth on selective medium, strain CY10560 expressing wild type receptor; format: cell-based; conditions: 0.3 μM ligand
T6 construct: The entire UDPG receptor gene was mutagenized via error-prone mutagenesis; expressed in transfected cells; host or cells: Saccharomyces cerevisiae CY10560 (growth) / CY10981 with Cp1021 FUS1-LacZ (β-galactosidase)
T6 sequence (Q15391 1-338): T1 sequence (Q15391 1-338 K54E/A98V/A193V/F243I/A252V) with E54K, V98A, V193A, I243F, V252A
From the text: Mutagenesis and selection of sensitized receptor mutants. […] The reporter gene, in this context, simply provided a means of confirming that yeast cells intended to be recipients of the GPCR of interest did in fact accept the GPCR. Yeast cells that have incorporated a foreign gene are referred to as “transformants.”
Genetic selection of sensitized receptor mutants.

[7] = target: alpha A1; conditions: cited from earlier work
[8] = target: alpha A2; conditions: cited from earlier work
[9] = target: beta A2 (Homo sapiens, UniProt P07550); conditions: cited from earlier work
[10] = target: T7, 5HT-1a (Homo sapiens, UniProt P08908); conditions: cited from earlier work
T7 sequence (P08908 1-422): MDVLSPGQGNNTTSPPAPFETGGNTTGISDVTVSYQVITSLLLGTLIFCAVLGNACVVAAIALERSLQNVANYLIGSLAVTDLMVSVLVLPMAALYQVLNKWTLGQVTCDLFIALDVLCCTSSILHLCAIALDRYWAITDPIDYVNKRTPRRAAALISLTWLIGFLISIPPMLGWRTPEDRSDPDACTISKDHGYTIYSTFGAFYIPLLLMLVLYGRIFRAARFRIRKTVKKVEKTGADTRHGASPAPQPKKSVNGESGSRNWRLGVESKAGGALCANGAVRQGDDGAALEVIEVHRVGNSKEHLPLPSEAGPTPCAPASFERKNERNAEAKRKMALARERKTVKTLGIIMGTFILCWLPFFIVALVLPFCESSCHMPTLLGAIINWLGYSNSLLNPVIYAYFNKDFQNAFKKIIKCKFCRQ

[11] = target: 5HT-1b (Homo sapiens, UniProt P28222); conditions: cited from earlier work
[12] = target: 5HT-2 (Homo sapiens, UniProt P28223); conditions: cited from earlier work
[13] = target: D1 (Homo sapiens, UniProt P21728); conditions: cited from earlier work
[14] = target: D2 (Homo sapiens, UniProt P14416); conditions: cited from earlier work
[15] = target: Muscarinic; conditions: cited from earlier work
[16] = target: Melatonin; conditions: cited from earlier work
[17] = test system: Histamine; conditions: cited from earlier work

Chain of 5HT-1b (P28222 whole entry, species assumed): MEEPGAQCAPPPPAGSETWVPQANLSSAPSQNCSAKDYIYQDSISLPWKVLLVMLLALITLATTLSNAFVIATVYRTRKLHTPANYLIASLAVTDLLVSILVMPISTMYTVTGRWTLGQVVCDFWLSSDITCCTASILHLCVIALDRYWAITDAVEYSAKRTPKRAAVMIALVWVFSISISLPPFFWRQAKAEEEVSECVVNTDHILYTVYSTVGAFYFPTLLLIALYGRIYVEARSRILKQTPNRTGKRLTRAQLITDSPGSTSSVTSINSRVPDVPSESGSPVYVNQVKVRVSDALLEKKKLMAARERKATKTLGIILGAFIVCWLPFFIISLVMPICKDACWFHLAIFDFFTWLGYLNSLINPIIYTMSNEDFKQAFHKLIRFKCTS
Chain of D1 (P21728 whole entry): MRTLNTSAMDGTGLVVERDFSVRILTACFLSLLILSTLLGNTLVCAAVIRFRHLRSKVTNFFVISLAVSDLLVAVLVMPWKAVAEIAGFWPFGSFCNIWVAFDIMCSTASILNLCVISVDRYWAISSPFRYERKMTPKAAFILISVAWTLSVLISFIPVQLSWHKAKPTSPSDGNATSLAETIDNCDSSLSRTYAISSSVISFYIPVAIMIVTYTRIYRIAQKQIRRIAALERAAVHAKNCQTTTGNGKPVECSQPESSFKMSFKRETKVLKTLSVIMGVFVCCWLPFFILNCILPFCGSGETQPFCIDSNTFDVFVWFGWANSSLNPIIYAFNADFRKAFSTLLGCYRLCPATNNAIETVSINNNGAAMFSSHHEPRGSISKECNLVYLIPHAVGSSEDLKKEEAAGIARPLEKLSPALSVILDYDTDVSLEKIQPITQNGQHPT
Chain of D2 (P14416 whole entry): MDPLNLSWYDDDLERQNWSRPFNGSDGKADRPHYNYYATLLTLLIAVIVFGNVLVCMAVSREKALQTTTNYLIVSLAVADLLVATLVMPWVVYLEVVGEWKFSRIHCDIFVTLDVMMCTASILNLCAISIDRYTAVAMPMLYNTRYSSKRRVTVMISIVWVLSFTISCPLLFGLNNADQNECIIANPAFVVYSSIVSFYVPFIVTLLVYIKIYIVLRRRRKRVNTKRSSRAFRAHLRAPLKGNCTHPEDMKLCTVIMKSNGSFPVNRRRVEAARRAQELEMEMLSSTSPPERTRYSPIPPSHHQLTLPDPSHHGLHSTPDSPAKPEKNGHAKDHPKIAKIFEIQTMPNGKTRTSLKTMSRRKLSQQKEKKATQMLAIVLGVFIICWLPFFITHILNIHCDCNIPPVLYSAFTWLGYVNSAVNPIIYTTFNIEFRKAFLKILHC
Chain of beta A2 (P07550 whole entry): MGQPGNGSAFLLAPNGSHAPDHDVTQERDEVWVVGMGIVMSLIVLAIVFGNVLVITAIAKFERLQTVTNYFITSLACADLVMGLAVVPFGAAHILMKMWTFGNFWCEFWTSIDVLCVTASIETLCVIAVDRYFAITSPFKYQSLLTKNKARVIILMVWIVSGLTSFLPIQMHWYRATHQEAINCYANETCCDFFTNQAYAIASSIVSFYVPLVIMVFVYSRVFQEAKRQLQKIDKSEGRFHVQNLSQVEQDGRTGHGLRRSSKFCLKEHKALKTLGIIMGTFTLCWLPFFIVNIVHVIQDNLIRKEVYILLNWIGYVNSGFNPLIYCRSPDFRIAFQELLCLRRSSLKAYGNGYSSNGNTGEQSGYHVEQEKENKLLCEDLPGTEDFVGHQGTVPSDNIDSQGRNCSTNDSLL
Chain of 5HT-2 (P28223 whole entry, species assumed): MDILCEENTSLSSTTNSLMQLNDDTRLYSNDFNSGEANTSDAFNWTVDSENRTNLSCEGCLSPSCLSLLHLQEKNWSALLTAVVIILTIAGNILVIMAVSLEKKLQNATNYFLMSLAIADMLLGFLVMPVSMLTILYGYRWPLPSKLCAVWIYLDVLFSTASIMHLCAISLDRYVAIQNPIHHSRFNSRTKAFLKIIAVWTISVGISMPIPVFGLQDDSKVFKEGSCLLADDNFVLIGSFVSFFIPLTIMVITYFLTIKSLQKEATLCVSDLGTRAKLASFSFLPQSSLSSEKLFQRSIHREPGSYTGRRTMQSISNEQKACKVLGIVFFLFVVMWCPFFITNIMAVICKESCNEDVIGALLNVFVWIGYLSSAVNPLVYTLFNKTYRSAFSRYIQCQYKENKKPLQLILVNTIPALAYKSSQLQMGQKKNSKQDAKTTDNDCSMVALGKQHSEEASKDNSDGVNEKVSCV

- Slope of the linear fit, Schild regression ([1]; UDP antagonism of UDP-glucose agonist activity, FIG. 2 Panel B): ~0.8
- agonist/antagonist character at H-20 receptor [2]: increasingly strong partial agonist
- agonist/antagonist character at wild type receptor [4]: primarily as an antagonist
- growth in response to ligand [5]: grew in the presence
SMILES: O=c1ccn([C@@H]2O[C@H](COP(=O)(O)OP(=O)(O)O)[C@@H](O)[C@H]2O)c(=O)[nH]1 [UDP, uridine diphosphate]
- agonist/antagonist character at 2211 receptor [1]: weakly activated; also recorded: competitive inhibitor; also recorded: primarily as an antagonist
- agonist/antagonist character at K-3 receptor [3]: at least a partial agonist; also recorded: increasingly strong partial agonist

SMILES: CC(=O)N[C@H]1[C@@H](OP(=O)(O)OP(=O)(O)OC[C@H]2O[C@@H](n3ccc(=O)[nH]c3=O)[C@H](O)[C@@H]2O)O[C@H](CO)[C@H](O)[C@@H]1O [UDP-galNAc, UDP-N-acetylgaltactosamine]
- growth on selective medium [6]: fails to grow

SMILES: CC(=O)N[C@H]1[C@@H](OP(=O)(O)OP(=O)(O)OC[C@H]2O[C@@H](n3ccc(=O)[nH]c3=O)[C@H](O)[C@@H]2O)O[C@H](CO)[C@@H](O)[C@@H]1O [UDP-glcNAc, UDP-N-acetylglucosamine]
- growth on selective medium [6]: fails to grow

SMILES: CN1CCc2cccc3c2[C@H]1Cc1ccc(O)c(O)c1-3 [apomorphine]
- Kd [7]: 2.3 µM
- x (efficacy factor) alpha A1 [7]: 1.0
- Kd [8]: 1 µM
- x (efficacy factor) alpha A2 [8]: 1.0
- x (efficacy factor) beta A2 [9]: 1.0
- x (efficacy factor) 5HT-1a [10]: 1.0
- Kd [11]: 100 µM
- x (efficacy factor) 5HT-1b [11]: 1.0
- x (efficacy factor) 5HT-2 [12]: 1.0
- x (efficacy factor) D1 [13]: 1.0
- x (efficacy factor) D2 [14]: 1.0
- Kd [15]: 10 µM
- x (efficacy factor) Muscarinic [15]: 1.0
- Kd [16]: 100 µM
- x (efficacy factor) Melatonin [16]: 1.0
- x (efficacy factor) Histamine [17]: 1.0
